In brackets after ≈: the same amount, converted by molar mass.
Conditions: 25 °C

Row | SMILES | solubility
1 | CCCC(O)CCC | 40.4 mM (≈ 4700 µg/mL)
2 | CC=CC(O)CC (stereo not drawn) | 380 mM (≈ 38100 µg/mL)
3 | CCC[C@](C)(O)CC | 101 mM (≈ 11700 µg/mL)
4 | CCCCCCCCO | 4.15 mM (≈ 540 µg/mL)
5 | CC(C)C(C)O (stereo not drawn) | 635 mM (≈ 56000 µg/mL)
6 | CC(C)CCC(C)O (stereo not drawn) | 41.9 mM (≈ 4870 µg/mL)
7 | CCCCC(C)(C)O | 83.5 mM (≈ 9700 µg/mL)
8 | CCCCCCCCCCO | 0.234 mM (≈ 37 µg/mL)
9 | CC(C)(C)CCCO | 28.5 mM (≈ 3310 µg/mL)
10 | CC(C)CCCO | 73.4 mM (≈ 7500 µg/mL)
11 | C=CC(O)C(C)C (stereo not drawn) | 305 mM (≈ 30600 µg/mL)

Same assay, conditions: 28 °C

Row | SMILES | solubility
12 | CCCCC(C)(O)CC (stereo not drawn) | 23.2 mM (≈ 3020 µg/mL)

Same assay, conditions: 30 °C

Row | SMILES | solubility
13 | CCCCCC(C)(C)O | 19.1 mM (≈ 2490 µg/mL)

Reference: the OPERA property sets (Mansouri et al. 2018)
